Measurements published in patent US10703755B2, “Substituted purine derivative” (SUMITOMO DAINIPPON PHARMA CO., LTD., priority 2016, dated 2020).
pIC50: −log10 of the molar value.

Molecular target: human TLR7 (Homo sapiens (Human), UniProt Q9NYK1)
Assay: Test for evaluating the inhibition of the activation of human TLR7 (SEAP reporter, TLR7/NF-κB/SEAPorter HEK293 cell)
Type: cell-based
Details: R-848 200 nmol/L; for pIC50: SEAP reporter; for inhibitory effect against TLR7 in the test for evaluating inhibition of the activation of TLR7: SEAP activity, result in words
Procedure, shortened: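 The readout is secreted alkaline phosphatase under NF-κB response-element control in TLR7/NF-κB/SEAPorter HEK293 cells, which stably express full-length human TLR7. Cells were plated at 5×10^4 per well and grown overnight at 37° C, 5% CO2, in DMEM/10% FBS/blasticidin.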

Chain of human TLR7 (Q9NYK1 27-1049): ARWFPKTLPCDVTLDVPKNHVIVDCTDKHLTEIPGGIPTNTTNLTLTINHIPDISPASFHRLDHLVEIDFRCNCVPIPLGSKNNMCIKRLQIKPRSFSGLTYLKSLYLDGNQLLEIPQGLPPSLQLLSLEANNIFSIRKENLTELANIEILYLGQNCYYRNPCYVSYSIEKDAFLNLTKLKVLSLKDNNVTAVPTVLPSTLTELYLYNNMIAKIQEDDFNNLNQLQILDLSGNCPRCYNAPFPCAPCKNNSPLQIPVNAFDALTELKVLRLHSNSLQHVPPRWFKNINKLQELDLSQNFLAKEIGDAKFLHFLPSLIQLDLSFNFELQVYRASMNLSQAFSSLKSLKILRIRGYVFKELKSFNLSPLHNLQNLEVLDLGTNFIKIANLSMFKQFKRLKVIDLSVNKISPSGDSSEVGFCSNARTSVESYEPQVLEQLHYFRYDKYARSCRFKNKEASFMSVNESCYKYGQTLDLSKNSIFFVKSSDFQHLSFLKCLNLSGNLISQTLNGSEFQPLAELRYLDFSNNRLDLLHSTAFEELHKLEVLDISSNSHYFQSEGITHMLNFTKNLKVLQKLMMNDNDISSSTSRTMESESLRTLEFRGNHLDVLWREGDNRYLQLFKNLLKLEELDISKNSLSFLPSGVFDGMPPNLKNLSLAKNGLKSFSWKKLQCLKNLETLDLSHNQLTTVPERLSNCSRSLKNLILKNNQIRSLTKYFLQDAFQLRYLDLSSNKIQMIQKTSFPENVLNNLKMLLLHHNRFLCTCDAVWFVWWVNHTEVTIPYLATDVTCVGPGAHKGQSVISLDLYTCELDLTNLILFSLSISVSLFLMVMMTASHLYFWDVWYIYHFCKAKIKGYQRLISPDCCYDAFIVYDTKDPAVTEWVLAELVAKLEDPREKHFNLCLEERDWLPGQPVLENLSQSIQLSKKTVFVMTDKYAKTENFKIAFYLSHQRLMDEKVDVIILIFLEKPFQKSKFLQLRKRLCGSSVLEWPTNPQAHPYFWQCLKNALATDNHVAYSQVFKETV

| SMILES | pIC50 | inhibitory effect against TLR7 in the test for evaluating inhibition of the activation of TLR7 |
| --- | --- | --- |
| COCCOc1nc(N)c2nc(-c3cncc(S(C)(=O)=O)c3)n(Cc3ccc(CN(C)C)cc3)c2n1 [Example 181] | 4.71 |  |
| CCOc1nc(C)c2nc(-c3cncc(F)c3)n(Cc3cnn(CC4CN(C)CCO4)c3)c2n1 (stereo not drawn) [Example 273] | 6.70 |  |
| CCOc1nc(N)c2nc(-c3cncc(F)c3)n(Cc3ccc(CN4C[C@@H]5C[C@H]4CN5C4COC4)cc3)c2n1 [Example 129] | 7.15 | potent inhibitory effect against TLR7 |
| CCOc1nc(C)c2nc(-c3cncc(F)c3)n(Cc3cnn(CC4CCCNC4)c3)c2n1 (stereo not drawn) [Example 269] | 7.72 |  |
| CCCCOc1nc(N)c2nc(-c3cccc(OC)c3)n(Cc3ccccc3)c2n1 [Example 12] | 5.04 |  |
| COc1nc(C)c2nc(-c3ccc4ncccc4c3)n(Cc3ccc(OC4CN5CCC4CC5)cc3F)c2n1 (stereo not drawn) [Example 440] | 7.08 |  |
| CCOc1nc(C)c2nc(-c3cncc(F)c3)n(Cc3cccnc3)c2n1 [Example 168] | 5.85 |  |
| COc1nc(C)c2nc(-c3cncc(F)c3)n(Cc3cnn(CCCN(C)C)c3)c2n1 [Example 251] | 6.74 |  |
| COc1nc(C)c2nc(-c3cncc(F)c3)n(Cc3ccc(C4CCNC4)cc3F)c2n1 (stereo not drawn) [Example 435] | 7.74 |  |
| CCOc1nc(C)c2nc(-c3cncc(F)c3)n(Cc3ccc(OCC4CN5CCC4CC5)nc3)c2n1 (stereo not drawn) [Example 73] | 6.80 |  |
| CCCCOc1nc(C)c2nc(-c3cncc(OC)c3)n(Cc3ccccc3)c2n1 [Example 142] | 5.18 |  |
| CCCCOc1nc(N)c2nc(-c3cncc(F)c3)n(Cc3cccc(CN4CCOCC4)c3)c2n1 [Example 86] | 6.52 |  |
| COc1nc(C)c2nc(-c3cncc(F)c3)n(Cc3ccc(C4CCN(C)C4)cc3F)c2n1 (stereo not drawn) [Example 290, 9-[2-fluoro-4-(1-methylpyrrolidin-3-yl)benzyl]-8-(5-fluoropyridin-3-yl)-2-methoxy-6-methyl-9H-purine] | 7.66 | potent inhibitory effect against TLR7 |
| CCOc1nc(C)c2nc(-c3cncc(F)c3)n(Cc3ccc(C4CN5CCC4CC5)cc3OCC)c2n1 (stereo not drawn) [Example 376] | 7.08 | potent inhibitory effect against TLR7 |
| CCOc1nc(N)c2nc(-c3cncc(F)c3)n(Cc3ccc(CN4C[C@@H]5C[C@H]4CN5C4CC4)cc3)c2n1 [Example 130] | 7.37 | potent inhibitory effect against TLR7 |
| COc1nc(N)c2nc(-c3cncc(F)c3)n(Cc3ccc(CN(C)C)cc3)c2n1 [Example 150] | 6.30 |  |
| CCOc1nc(N)c2nc(-c3cncc(F)c3)n(Cc3ccc(O[C@H]4CN5CCC4CC5)cc3)c2n1 [Example 67] | 7.29 | potent inhibitory effect against TLR7 |
| COc1nc(C)c2nc(-c3cncnc3)n(Cc3ccc(C4CN5CCC4CC5)cc3F)c2n1 (stereo not drawn) [Example 346] | 7.72 | potent inhibitory effect against TLR7 |

| SMILES | pIC50 | inhibitory effect against TLR7 in the test for evaluating inhibition of the activation of TLR7 |
| --- | --- | --- |
| CCOc1nc(N)c2nc(-c3cncc(F)c3)n(Cc3ccc(CN4CCC4)cc3)c2n1 [Example 100] | 7.02 | potent inhibitory effect against TLR7 |
| CCOc1nc(C)c2nc(-c3cncc(F)c3)n(Cc3ccc(CN4CCCCC4)cc3)c2n1 [Example 264] | 7.20 | potent inhibitory effect against TLR7 |
| CCN1C[C@@H]2C[C@H]1CN2Cc1ccc(Cn2c(-c3cncc(F)c3)nc3c(C)nc(OC)nc32)cc1 [Example 132, 9-(4-{[(1S,4S)-5-ethyl-2,5-diazabicyclo[2.2.1]hept-2-yl]methyl}benzyl)-8-(5-fluoropyridin-3-yl)-2-methoxy-6-methyl-9H-purine] | 7.72 | potent inhibitory effect against TLR7 |
| CCCCOc1nc(N)c2nc(-c3cnc(N)nc3)n(Cc3ccccc3)c2n1 [Example 6] | 5.02 |  |
| COc1nc(C)c2nc(-c3cncnc3)n(Cc3ccc(O[C@@H]4CN5CCC4CC5)cc3F)c2n1 [Example 323, 9-{4-[(3S)-1-azabicyclo[2.2.2]oct-3-yloxy]-2-fluorobenzyl}-2-methoxy-6-methyl-8-(pyrimidin-5-yl)-9H-purine] | 7.15 | potent inhibitory effect against TLR7 |
| CCOc1nc(N)c2nc(-c3cncc(F)c3)n(Cc3ccc(CN4CCOCC4)cc3)c2n1 [Example 97] | 7.00 |  |
| CCOc1nc(N)c2nc(-c3cncc(F)c3)n(Cc3cc(OC)ccc3F)c2n1 [Example 43] | 5.70 |  |
| CCOc1nc(C)c2nc(-c3cncc(F)c3)n(Cc3ccc(C4CCN(C)C4)cc3)c2n1 (stereo not drawn) [Example 138] | 7.31 | potent inhibitory effect against TLR7 |
| CCN1CCC(c2ccc(Cn3c(-c4cncc(F)c4)nc4c(C)nc(OC)nc43)c(F)c2)CC1 [Example 284, 9-[4-(1-ethylpiperidin-4-yl)-2-fluorobenzyl]-8-(5-fluoropyridin-3-yl)-2-methoxy-6-methyl-9H-purine] | 8.52 | potent inhibitory effect against TLR7 |
| CCCCOc1nc(N)c2nc(-c3cncnc3)n(Cc3ccccc3)c2n1 [Example 5] | 5.85 |  |
| CCOc1nc(C)c2nc(-c3cncc(F)c3)n(Cc3ccc(C4=CN5CCC4CC5)cn3)c2n1 [Example 352, 9-{[5-(1-Azabicyclo[2.2.2]oct-2-en-3-yl)pyridin-2-yl]methyl}-2-ethoxy-8-(5-fluoropyridin-3-yl)-6-methyl-9H-purine] | 6.30 |  |
| CCOc1nc(C)c2nc(-c3cncc(F)c3)n(Cc3cnn(CC4CCCNC4)c3)c2n1 (stereo not drawn) [Example 268] | 7.57 |  |
| COc1nc(C)c2nc(-c3cncc(C#N)c3)n(Cc3ccc(CN4C[C@@H]5C[C@H]4CN5C)cc3F)c2n1 [Example 308, 5-[9-(2-fluoro-4-{[(1S,4S)-5-methyl-2,5-diazabicyclo[2.2.1]hept-2-yl]methyl}benzyl)-2-methoxy-6-methyl-9H-purin-8-yl]pyridine-3-carbonitrile] | 7.57 | potent inhibitory effect against TLR7 |
| COc1nc(C)c2nc(-c3cncc(F)c3)n(Cc3ccc(CN4C[C@@H]5C[C@H]4CN5)cc3)c2n1 [Example 125] | 7.07 | potent inhibitory effect against TLR7 |
| COc1nc(C)c2nc(-c3cncc(F)c3)n(Cc3ccc(Br)cc3F)c2n1 [Example 337] | 5.87 |  |
| COc1nc(C)c2nc(-c3cncc(F)c3)n(Cc3ccc(C4=CN5CCC4CC5)c(F)c3)c2n1 [Example 357] | 7.21 |  |
| CCOc1nc(N)c2nc(-c3cncc(F)c3)n(Cc3ccc(CN4CC(C)(O)C4)cc3)c2n1 [Example 106] | 7.21 | potent inhibitory effect against TLR7 |
| COc1ccc(Cn2c(-c3cncc(F)c3)nc3c(C)nc(OC)nc32)c(F)c1 [Example 405, 9-(2-fluoro-4-methoxybenzyl)-8-(5-fluoropyridin-3-yl)-2-methoxy-6-methyl-9H-purine] | 5.47 |  |
